Patent publication US4396550A, “Dibenz [b,e] oxepin derivatives” (Kyowa Hakko Kogyo Co., Ltd., priority 1980, dated 1983)

Key:
[1] = system: male dd-strain rats; experiment: Acute toxicity test (minimum lethal dose); type: in vivo; settings: mortality for 7 days
Method: Groups of male dd-strain rats (each group consisting of five rats) weighing 20±1 g were used. The compounds of the present invention were administered orally (po: 0.3 mg/g) or intraperitoneally (ip: 0.1 mg/g). The MLD (minimum lethal dose) was calculated from the mortality for 7 days after the administration to obtain the results given in Table 1.

[2] = system: isolated ileum of guinea-pig; experiment: Test for antihistaminergic effects on the isolated ileum of guinea-pig (histamine contraction, in vitro); design: species or system guinea-pig (male Hartly-strain); settings: Cavia porcellus, 0.05 h; depressing ratio of 80% or more of histamine contraction; read-out: Antihistaminergic activity: MED
Method: (§1) Male Hartly-strain guinea-pigs weighing about 250 g are killed and the abdomen is opened. The part (2-3 cm in length) of the ileum 10 cm away from the caecum to the pylorus is cut off as a preparation. The preparation is suspended with serre-fine in a Magnus bath containing 10 ml of Tyrode's solution at 32±1° C. under an air bubble. The contraction of the ileum is recorded on Kymograph through hebel when 0.1 ml of acetylcholine at a concentration of 10^-3 g/ml is added to the Tyrode's solution.
(§2) On the other hand, 3 minutes after administration of the test compounds, the same procedure as mentioned above is carried out to record the contraction.
In this test, 0.1 ml of histamine at a concentration of 5×10^-3 g/l is used.

[3] = system: isolated ileum of guinea-pig; experiment: Test for anticholinergic effects on the isolated ileum of guinea-pig (acetylcholine contraction, in vitro); design: species or system guinea-pig (male Hartly-strain); settings: Cavia porcellus, 0.05 h; depressing ratio of 80% or more of acetylcholine contraction; compound 3 minutes before; read-out: Anticholinergic activity: MED (minimum effective dose)
Method: as §1, §2

[4] = system: blood platelets (platelet-rich plasma); experiment: Test for the inhibition of platelet aggregation (collagen-induced, platelet-rich plasma); type: cell-based, male white rabbits; settings: Oryctolagus cuniculus, Platelet, 0.05 h; depressing ratio of 50% of collagen-induced aggregation; compound 3 minutes before; read-out: Antiplatelet aggregation activity: MED
Method: In this test, 9 vols. of blood are sampled from the caroted artery of male white rabbits weighing 2 to 2.5 kg and placed in a silicon-coated flask containing 1 vol. of 3.8% sodium citrate. The thus obtained blood is centrifuged at 1,000 rpm for 15 minutes to obtain platelet-rich plasma. The aggregation of the blood platelets is observed using an aggregometer, when collagen is added to the platelet-rich plasma to the extent of the final concentration that 50% of platelet aggregation is caused in the presence of 100 γ/ml of aspirin. On the other hand, 3 minutes after administration of the test compounds to the platelet-rich plasma, the same procedure as mentioned above is carried out to observe the aggregation of blood platelet. The test compounds showing a depressing ratio of 50%, compared with the inhibition of aggregation by collagen alone, are concluded to have antiplatelet aggregation activity.

[5] = Antiasthmatic activity; type: in vivo; settings: po; read-out: Antiasthmatic activity: MED

SMILES | Acute toxicity: MLD (minimum lethal dose) ([1]; ip) | Acute toxicity: MLD (minimum lethal dose) ([1]; po) | minimal effective concentration [2] | minimal effective concentration [3] | minimal effective concentration [4] | minimal effective dose [5]
CCN(CC)CCCNC1c2ccccc2COc2ccc(F)cc21 (centres unmarked) [Compound 3, 2-fluoro-11-{3-(diethylamino)propyl}amino-6,11-dihydrodibenz[b,e]oxepin] | > 100 mg/kg | > 300 mg/kg | 10 µg/mL | 10 µg/mL | 20 µg/mL | –
CCc1ccc2c(c1)C(NCCCN(C)C)c1ccccc1CO2 (centres unmarked) [Compound 15, 2-ethyl-11-{3-(dimethylamino)propyl}amino-6,11-dihydrodibenz[b,e]oxepin] | > 100 mg/kg | > 300 mg/kg | 3 µg/mL | 3 µg/mL | 20 µg/mL | –
CCN(CC)CCNC1c2ccccc2COc2ccc(C3CCCCC3)cc21 (centres unmarked) [Compound 48, 2-cyclohexyl-11-{2-(diethylamino)ethyl}amino-6,11-dihydrodibenz[b,e]oxepin] | 100 mg/kg | > 300 mg/kg | 3 µg/mL | 3 µg/mL | 100 µg/mL | –
CCN1CCCC(NC2c3ccccc3COc3ccc(C)cc32)C1 (centres unmarked) [Compound 27, 2-methyl-11-(1-ethyl-3-piperidyl)amino-6,11-dihydrodibenz[b,e]oxepin] | > 100 mg/kg | 300 mg/kg | 10 µg/mL | 1 µg/mL | 100 µg/mL | –
Cc1ccc2c(c1)C(NCCN1CCNCC1)c1ccccc1CO2 (centres unmarked) [Compound 25, 2-methyl-11-{2-(1-piperazinyl)ethyl}amino-6,11-dihydrodibenz[b,e]oxepin] | > 100 mg/kg | > 300 mg/kg | 10 µg/mL | 10 µg/mL | 20 µg/mL | –
CCN(CC)CCCNC1c2ccccc2COc2ccc(Cl)cc21 (centres unmarked) [Compound 5, 2-chloro-11-{3-(diethylamino)propyl}amino-6,11-dihydrodibenz[b,e]oxepin] | > 100 mg/kg | 300 mg/kg | 1 µg/mL | 1 µg/mL | 20 µg/mL | –
CN(C)CCCNC1c2ccccc2COc2ccc(Cl)cc21 (centres unmarked) [Compound 50, 2-chloro-11-{3-(dimethylamino)propyl}amino-6,11-dihydrodibenz[b,e]oxepin] | > 100 mg/kg | 200 mg/kg | 3 µg/mL | 10 µg/mL | 50 µg/mL | –
Cc1ccc2c(c1)C(N1CCN(CCO)CC1)c1ccccc1CO2 (centres unmarked) [Compound 37, 2-methyl-11-{4-(2-hydroxyethyl)-1-piperazinyl}-6,11-dihydrodibenz[b,e]oxepin] | > 100 mg/kg | > 300 mg/kg | 10 µg/mL | 10 µg/mL | 50 µg/mL | –
CCc1ccc2c(c1)C(NCCCN(CC)CC)c1ccccc1CO2 (centres unmarked) [Compound 2, 2-ethyl-11-{3-(diethylamino)propyl}amino-6,11-dihydrodibenz[b,e]oxepin] | 100 mg/kg | 300 mg/kg | 1 µg/mL | 10 µg/mL | 1 µg/mL | –
CCN(CC)CCNC1c2ccccc2COc2ccc(Cl)cc21 (centres unmarked) [Compound 10, 2-chloro-11-{2-(diethylamino)ethyl}amino-6,11-dihydrodibenz[b,e]oxepin] | > 100 mg/kg | > 300 mg/kg | – | – | 2 µg/mL | 100 mg/kg
CCC(C)(C)c1ccc2c(c1)C(NC1CN3CCC1CC3)c1ccccc1CO2 (centres unmarked) [Compound 53, 2-(1,1-dimethyl)propyl-11-(3-quinuclidinyl)amino-6,11-dihydrodibenz[b,e]oxepin] | 50 mg/kg | > 300 mg/kg | 1 µg/mL | 10 µg/mL | – | 50 mg/kg
CCN(CC)CCCNC1c2ccccc2COc2c(C)cccc21 (centres unmarked) [Compound 6, 4-methyl-11-{3-(diethylamino)propyl}amino-6,11-dihydrodibenz[b,e]oxepin] | 100 mg/kg | 300 mg/kg | 10 µg/mL | 3 µg/mL | 20 µg/mL | –
CCc1ccc2c(c1)C(NCCN1CCNCC1)c1ccccc1CO2 (centres unmarked) [Compound 26, 2-ethyl-11-{2-(1-piperazinyl)ethyl}amino-6,11-dihydrodibenz[b,e]oxepin] | > 100 mg/kg | > 300 mg/kg | 3 µg/mL | 3 µg/mL | 5 µg/mL | –
CN1CCN(C2c3ccccc3COc3c(-c4ccccc4)cccc32)CC1 (centres unmarked) [Compound 47, 4-phenyl-11-(4-methyl-1-piperazinyl)-6,11-dihydrodibenz[b,e]oxepin] | 100 mg/kg | 200 mg/kg | 10 µg/mL | 3 µg/mL | 10 µg/mL | –
c1ccc(-c2cccc3c2OCc2ccccc2C3NC2CN3CCC2CC3)cc1 (centres unmarked) [Compound 57, 4-phenyl-11-(3-quinuclidinyl)amino-6,11-dihydrodibenz[b,e]oxepin] | 100 mg/kg | > 300 mg/kg | 3 µg/mL | 3 µg/mL | 10 µg/mL | –
Cc1ccc2c(c1)C(NCCc1ccccn1)c1ccccc1CO2 (centres unmarked) [Compound 36, 2-methyl-11-{2-(2-pyridyl)ethyl}amino-6,11-dihydrodibenz[b,e]oxepin] | 100 mg/kg | 200 mg/kg | 3 µg/mL | 10 µg/mL | 100 µg/mL | –
CN(C)CCCNC1c2ccccc2COc2ccc(F)cc21 (centres unmarked) [Compound 49, 2-fluoro-11-{3-(dimethylamino)propyl}amino-6,11-dihydrodibenz[b,e]oxepin] | > 100 mg/kg | > 300 mg/kg | 1 µg/mL | 3 µg/mL | 50 µg/mL | –
Cc1ccc2c(c1)C(NCCN1CCOCC1)c1ccccc1CO2 (centres unmarked) [Compound 59, 2-methyl-11-(2-morpholinoethyl)amino-6,11-dihydrodibenz[b,e]oxepin] | > 100 mg/kg | 200 mg/kg | 10 µg/mL | – | 100 µg/mL | 100 mg/kg
CCc1ccc2c(c1)C(N1CCN(CCN)CC1)c1ccccc1CO2 (centres unmarked) [Compound 45, 2-ethyl-11-{4-(2-aminoethyl)-1-piperazinyl}-6,11-dihydrodibenz[b,e]oxepin] | 100 mg/kg | > 300 mg/kg | 10 µg/mL | 10 µg/mL | 100 µg/mL | –
CCc1ccc2c(c1)C(NC1CC(C)(C)NC(C)(C)C1)c1ccccc1CO2 (centres unmarked) [Compound 63, 2-ethyl-11-{4-(2,2,6,6-tetramethyl)piperidinyl}amino-6,11-dihydrodibenz[b,e]oxepin] | 100 mg/kg | 200 mg/kg | 3 µg/mL | 3 µg/mL | 10 µg/mL | –
OCCN1CCN(C2c3ccccc3COc3ccc(Cl)cc32)CC1 (centres unmarked) [Compound 40, 2-chloro-11-{4-(2-hydroxyethyl)-1-piperazinyl}-6,11-dihydrodibenz[b,e]oxepin] | > 100 mg/kg | > 300 mg/kg | 3 µg/mL | – | 100 µg/mL | 50 mg/kg
